Data from patent US20240382446A1, “METHOD FOR IMPROVING FEED INTAKE” (OREXA B.V., priority 2021, published 2024).
Like-named read-outs stand apart in the source and are kept apart here.

Experiments:
[1] = Weaning of mice with feed comprising various local anesthetics (body weight); assay type: in vivo
Experimental: Litters of mice are weaned on day 18 after birth. The siblings are divided over 2 groups (placebo and active) with group sizes of 7-10 siblings.
The pups are offered daily ad libitum food in which a local anesthetic is mixed. Body weight is measured daily.
In TABLES I-IV the body weight is depicted as percentage increase on day 14 in comparison to baseline, as a result of dosing lidocaine (comparative), prilocaine (comparative), bupivacaine (comparative) and benzocaine (according to the invention) to the mice. The baseline is the weight of the mouse at the beginning of the experiment. Placebo and experimental scores are statistically compared by means of student-t tests (* p<0,05; ** p<0,01; *** p<0,001). Doses are indicated on the x-axis and are mg per day for the group of siblings.

[2] = Weaning of piglets with feed comprising various amounts of benzocaine; assay type: in vivo
Experimental: Six groups of 21 piglets were treated.
They were fed with controlled amounts of feed (see table V).
Before administration, the food pellets were drenched in water for 30 min and benzocaine (0 g (3×), 5 g, 12,75 g or 17 g, corresponding to a dose of 0, 30, 75 and 100 mg per day per pig, respectively) was added and mixed. The group of piglets receiving feed with 0% benzocaine is referred to as the placebo group.
Amounts of feed consumed were recorded. Piglets were weighed on day 1 (baseline), 4, and 8.

[3] = cited from earlier work
[4] = mice weaned day 18, anesthetic mixed in ad libitum food, day 14 vs baseline
[5] = benzocaine treated pigs vs placebo group

CCCNC(C)C(=O)Nc1ccccc1C (stereo not drawn) [prilocaine]
growth of the mice (body weight increase) in comparison to placebo [1, 4]: either inactive (low dose) or inhibit the growth of the mice

CCOC(=O)c1ccc(N)cc1 [benzocaine]
growth of the mice (body weight increase) in comparison to placebo ([1]; 200 mg per day for the group of siblings, day 14): inhibits the growth | growth of the mice (body weight increase) in comparison to placebo ([1]; low doses 25, 50 and 100 mg per day for the group of siblings, day 14): increases the growth | fouling and diarrhea [2, 5]: less fouling and less diarrhea | general condition of the pigs [2, 5]: better than that of the placebo group | feed intake relative to placebo ([2]; piglets, after day 4, 30 mg and 75 mg benzocaine per day): increase feed intake | growth of lightest vs heaviest 50% of the animals ([2]; piglets, day 7, group analysis vs placebo): increase of growth in the benzocaine-fed group primarily takes place with the light weight animals | feed intake relative to placebo ([2]; piglets, first 3 days): initial reduction of the feed intake | optimal dose ([2]; piglets, per pig): 75 mg per day | feed conversion (feed needed per weight gain) ([2]; piglets, with increasing benzocaine dosing, placebo about 12,8 kg feed per 1 kg): 2,6 kg of feed per 1 kg of meat | solubility ([3]; dilute acids): more soluble | solubility ([3]; ethanol, chloroform, and ethyl ether): very soluble | solubility ([3]; water): sparingly soluble

CCN(CC)CC(=O)Nc1c(C)cccc1C [Lidocaine, lidocaine]
growth of the mice (body weight increase) in comparison to placebo [1, 4]: either inactive (low dose) or inhibit the growth of the mice

CCCCN1CCCCC1C(=O)Nc1c(C)cccc1C (stereo not drawn) [bupivacaine]
growth of the mice (body weight increase) in comparison to placebo [1, 4]: either inactive (low dose) or inhibit the growth of the mice
